Where two headings read alike, the source gives them in different places.

What all share (format): in vivo, dog
One experiment addresses T1, COX-1 (Canis lupus familiaris, UniProt Q8HZR1).
T1 construct: from tissue
T1 sequence (Q8HZR1 28-603): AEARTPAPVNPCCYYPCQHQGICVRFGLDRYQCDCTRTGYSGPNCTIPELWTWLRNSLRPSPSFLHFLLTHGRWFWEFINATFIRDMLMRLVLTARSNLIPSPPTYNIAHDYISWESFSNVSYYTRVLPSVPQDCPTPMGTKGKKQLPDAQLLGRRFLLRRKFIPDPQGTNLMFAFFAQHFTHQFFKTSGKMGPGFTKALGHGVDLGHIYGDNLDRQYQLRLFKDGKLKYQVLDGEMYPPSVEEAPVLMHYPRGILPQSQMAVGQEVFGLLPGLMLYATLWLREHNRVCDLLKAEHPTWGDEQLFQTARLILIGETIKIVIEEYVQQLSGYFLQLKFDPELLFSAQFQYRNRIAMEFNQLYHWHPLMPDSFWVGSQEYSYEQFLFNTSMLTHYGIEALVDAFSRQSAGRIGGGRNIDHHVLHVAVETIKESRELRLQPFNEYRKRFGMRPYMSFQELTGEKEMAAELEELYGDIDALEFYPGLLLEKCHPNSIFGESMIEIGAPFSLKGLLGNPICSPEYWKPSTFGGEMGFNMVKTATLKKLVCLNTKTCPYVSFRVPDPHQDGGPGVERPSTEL
The experiment is described as follows: COX-1 IC50 determination in dogs. As to conditions: six dogs; γ-tocopherol tested as tocopherol composition comprising 66.6% gamma-tocopherol.

Another experiment deals with T2, COX-2 (Canis lupus familiaris, UniProt Q8SPQ9).
T2 sequence (Q8SPQ9 18-604): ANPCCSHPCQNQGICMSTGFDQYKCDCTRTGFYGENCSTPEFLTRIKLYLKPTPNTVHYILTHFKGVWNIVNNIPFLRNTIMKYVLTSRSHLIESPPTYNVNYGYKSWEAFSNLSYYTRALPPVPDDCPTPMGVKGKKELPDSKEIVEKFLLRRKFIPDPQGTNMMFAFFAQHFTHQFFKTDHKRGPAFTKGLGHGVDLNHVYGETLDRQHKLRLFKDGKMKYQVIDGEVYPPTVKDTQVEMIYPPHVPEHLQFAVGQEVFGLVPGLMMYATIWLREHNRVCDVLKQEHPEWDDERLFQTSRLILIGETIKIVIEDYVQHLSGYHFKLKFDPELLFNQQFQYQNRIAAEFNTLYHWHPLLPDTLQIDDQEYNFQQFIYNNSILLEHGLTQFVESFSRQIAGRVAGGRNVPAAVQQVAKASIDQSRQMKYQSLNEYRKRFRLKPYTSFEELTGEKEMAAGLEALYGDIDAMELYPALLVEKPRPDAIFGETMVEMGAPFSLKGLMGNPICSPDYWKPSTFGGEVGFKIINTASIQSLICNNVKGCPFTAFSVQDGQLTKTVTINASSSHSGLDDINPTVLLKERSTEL
The experiment is described as follows: COX-2 IC50 determination in dogs. Further details: from tissue. The conditions noted are these: for COX-1:COX-2: ratio of COX-1 IC50 to COX-2 IC50 (selectivity).

The next experiment relates to urate-induced lameness. The experiment is described as follows: crystal urate-induced lameness model in dogs. The conditions noted are these: 10 or 100 mg/kg body weight, 66.4% w/w or 90.9% w/w gamma-tocopherol. How it is done:
A study was conducted to evaluate the effectiveness of the inventive formulations using the crystal urate-induced lameness model dogs. Formulations according to the invention and comprising 66.4% w/w or 90.9% w/w gamma-tocopherol and at 10 and 100 mg/kg body weight were administered to the dogs.

[1] abbreviates: six dogs, γ-tocopherol tested as tocopherol composition comprising 66.6% gamma-tocopherol, read-out: COX-2 IC50.

What is called IC50 is the concentration at which inhibition is half-maximal. Take `CC(C(=O)O)c1ccc2c(c1)[nH]c1ccc(Cl)cc12` (stereo not shown) [Carprofen]: inhibition against COX-1 was half-maximal at 68.6 µM (IC50). Also, at COX-2, inhibition was half-maximal at 10 µM (IC50) and the “COX-1:COX-2” value is listed as 7.

As to `CC1(C)OC(=O)C(OCC2CC2)=C1c1ccc(S(C)(=O)=O)cc1` [Firocoxib], the results for the half-maximal inhibitory concentration (IC50) at COX-1 and at COX-2 (setting [1]) were 119 µM and 0.31 µM, respectively. For the same molecule, the “COX-1:COX-2” value on COX-2 is on record as 384.

As for `Cc1c(O)cc2c(c1C)O[C@](C)(CCC[C@H](C)CCC[C@H](C)CCCC(C)C)CC2` [γ-Tocopherol, 3,4-dihydro-2,7,8-trimethyl-2-(4,8,12-trimethyltridecyl)-2H-1-benzyopyran-6-ol], the “COX-1 IC50” value at COX-1 is listed as “No activity”. The IC50 at COX-2 (setting [1]) stood at 27.8 µM. Besides, the “degree of force upon the urate-treated joints tolerated” value with urate-induced lameness (FIGS. 3-4) is listed as “increased”. Further, the “degree of lameness (urate-induced)” value in the experiment with urate-induced lameness (after 8 hours, FIGS. 1-2) was “Improvement in the degree of lameness”.

These data come from patent US20070015822A1, “Methods for selectively treating COX-2 mediated disorders by administering gamma-tocopherol” (priority 2005, published 2007).
